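Growth conditions: 96-well plates. Treatment: test compound, 48 hours, 5 concentrations. Analysis: linear interpolation between bracketing concentrations; unreached endpoints set to highest concentration. TGI denotes the concentration required for complete inhibition of growth.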
Assays:
Assay in all cases: inhibition of tumour cell growth, NCI panel, 48 h
TK-10 renal = test system: TK-10 renal
NCI-H226 lung = test system: NCI-H226 lung
COLO 205 colon = test system: COLO 205 colon
SK-OV-3 ovarian = test system: SK-OV-3 ovarian
SNB-75 CNS = test system: SNB-75 CNS
SNB-19 CNS = test system: SNB-19 CNS
M14 melanoma = test system: M14 melanoma
CCRF-CEM leukemia = test system: CCRF-CEM leukemia
OVCAR-8 ovarian = test system: OVCAR-8 ovarian
OVCAR-3 ovarian = test system: OVCAR-3 ovarian
UACC-257 melanoma = test system: UACC-257 melanoma
SW-620 colon = test system: SW-620 colon
A549 NSCLC = test system: A549 NSCLC
DU-145 prostate = test system: DU-145 prostate
SR leukemia = test system: SR leukemia
LOX IMVI melanoma = test system: LOX IMVI melanoma
RPMI-8226 leukemia = test system: RPMI-8226 leukemia
HL-60(TB) leukemia = test system: HL-60(TB) leukemia
SF-295 CNS = test system: SF-295 CNS
PC-3 prostate = test system: PC-3 prostate
MOLT-4 leukemia = test system: MOLT-4 leukemia
SK-MEL-2 melanoma = test system: SK-MEL-2 melanoma
786-0 renal = test system: 786-0 renal
MDA-MB-231 breast = test system: MDA-MB-231 breast
HOP-62 NSCLC = test system: HOP-62 NSCLC
HS 578T breast = test system: HS 578T breast
HT29 colon = test system: HT29 colon
HCT-116 colon = test system: HCT-116 colon
KM12 colon = test system: KM12 colon
NCI/ADR-RES ovarian = test system: NCI/ADR-RES ovarian
T-47D breast = test system: T-47D breast
SN12C renal = test system: SN12C renal
ACHN renal = test system: ACHN renal
HCT-15 colon = test system: HCT-15 colon
K-562 leukemia = test system: K-562 leukemia
A498 renal = test system: A498 renal
HCC-2998 colon = test system: HCC-2998 colon
OVCAR-4 ovarian = test system: OVCAR-4 ovarian
EKVX NSCLC = test system: EKVX NSCLC
HOP-92 NSCLC = test system: HOP-92 NSCLC
NCI-H522 lung = test system: NCI-H522 lung
UO-31 renal = test system: UO-31 renal
CAKI-1 renal = test system: CAKI-1 renal
NCI-H23 lung = test system: NCI-H23 lung
NCI-H460 lung = test system: NCI-H460 lung
U251 CNS = test system: U251 CNS
SK-MEL-5 melanoma = test system: SK-MEL-5 melanoma
IGROV1 ovarian = test system: IGROV1 ovarian
SK-MEL-28 melanoma = test system: SK-MEL-28 melanoma
MALME-3M melanoma = test system: MALME-3M melanoma
SF-539 CNS = test system: SF-539 CNS
MCF7 breast = test system: MCF7 breast
MDA-MB-435 = test system: MDA-MB-435
SF-268 CNS = test system: SF-268 CNS
RXF 393 renal = test system: RXF 393 renal
MDA-N = test system: MDA-N
OVCAR-5 ovarian = test system: OVCAR-5 ovarian
BT-549 breast = test system: BT-549 breast

Q: Which results are given for CCOC(=O)C(=CNc1ccc(N(C2=NCC(C)S2)c2ccc(F)c(Cl)c2)cc1)C(=O)OCC (stereo not drawn)?
A: TGI (TK-10 renal): 57.1 µM; TGI (NCI-H226 lung): 36.6 µM; TGI (COLO 205 colon): 33.3 µM; TGI (SK-OV-3 ovarian): 70.7 µM; TGI (SNB-75 CNS): 43.7 µM; TGI (SNB-19 CNS): 54.5 µM; TGI (M14 melanoma): 35.4 µM; TGI (CCRF-CEM leukemia): 30.1 µM; TGI (OVCAR-8 ovarian): 37.3 µM; TGI (OVCAR-3 ovarian): 51.8 µM; TGI (UACC-257 melanoma): 34 µM; TGI (SW-620 colon): 57.1 µM; TGI (A549 NSCLC): 86.1 µM; TGI (DU-145 prostate): 43.9 µM; TGI (SR leukemia): 43.1 µM; TGI (LOX IMVI melanoma): 34.5 µM; TGI (RPMI-8226 leukemia): 72.8 µM; TGI (HL-60(TB) leukemia): 52.9 µM; TGI (SF-295 CNS): 64.2 µM; TGI (PC-3 prostate): 50.9 µM; TGI (MOLT-4 leukemia): 41.6 µM; TGI (SK-MEL-2 melanoma): 43.7 µM; TGI (786-0 renal): 33.2 µM; TGI (MDA-MB-231 breast): 30.9 µM; TGI (HOP-62 NSCLC): 52 µM; TGI (HS 578T breast): 55.3 µM; TGI (HT29 colon): 34.7 µM; TGI (HCT-116 colon): 31.4 µM; TGI (KM12 colon): 33.6 µM; TGI (NCI/ADR-RES ovarian): 33.7 µM; TGI (T-47D breast): 49.5 µM; TGI (SN12C renal): 36.2 µM; TGI (ACHN renal): 39.8 µM; TGI (HCT-15 colon): 36.1 µM; TGI (K-562 leukemia): > 100 µM; TGI (A498 renal): 41.1 µM; TGI (HCC-2998 colon): 32 µM; TGI (OVCAR-4 ovarian): 65.3 µM; TGI (EKVX NSCLC): 43.3 µM; TGI (HOP-92 NSCLC): 36.1 µM; TGI (NCI-H522 lung): 30.3 µM; TGI (UO-31 renal): 38.6 µM; TGI (CAKI-1 renal): > 100 µM; TGI (NCI-H23 lung): 33.9 µM; TGI (NCI-H460 lung): 49.7 µM; TGI (U251 CNS): 48.1 µM; TGI (SK-MEL-5 melanoma): 36.7 µM; TGI (IGROV1 ovarian): 44.5 µM; TGI (SK-MEL-28 melanoma): 42.5 µM; TGI (MALME-3M melanoma): 39.4 µM; TGI (SF-539 CNS): 46.4 µM; TGI (MCF7 breast): 53.9 µM; TGI (MDA-MB-435): 55.9 µM; TGI (SF-268 CNS): 55.3 µM; TGI (RXF 393 renal): 21.3 µM; TGI (MDA-N): 43.1 µM; TGI (OVCAR-5 ovarian): 39 µM

Q: O=c1[nH]ncc2[nH]c3c4ccccc4ccc3c12 was tested. Which TGI (TK-10 renal) did it give?
A: Its TGI is greater than 100 µM.

Q: And the TGI (COLO 205 colon)?
A: The TGI was 96.1 µM.

Q: And the TGI (SK-OV-3 ovarian)?
A: The TGI was greater than 100 µM.

Q: And the TGI (M14 melanoma)?
A: The TGI was greater than 100 µM.

Q: And the TGI (CCRF-CEM leukemia)?
A: The TGI was greater than 100 µM.

Q: And the TGI (OVCAR-8 ovarian)?
A: The TGI was greater than 100 µM.

Q: What about the TGI (OVCAR-3 ovarian) of the same molecule?
A: Its TGI is greater than 100 µM.

Q: What about the TGI (BT-549 breast) of the same molecule?
A: The TGI was greater than 100 µM.

Q: What about the TGI (SW-620 colon) of the same molecule?
A: Its TGI is greater than 100 µM.

Q: And the TGI (A549 NSCLC)?
A: Its TGI is 65.6 µM.

Q: What about the TGI (DU-145 prostate) of the same molecule?
A: Its TGI is greater than 100 µM.

Q: What about the TGI (SR leukemia) of the same molecule?
A: Its TGI is greater than 100 µM.

Q: And the TGI (LOX IMVI melanoma)?
A: Its TGI is greater than 100 µM.

Q: What about the TGI (RPMI-8226 leukemia) of the same molecule?
A: The TGI was greater than 100 µM.

Q: What about the TGI (HL-60(TB) leukemia) of the same molecule?
A: Its TGI is greater than 100 µM.

Q: What about the TGI (SF-295 CNS) of the same molecule?
A: Its TGI is 84.1 µM.

Q: What about the TGI (PC-3 prostate) of the same molecule?
A: Its TGI is greater than 100 µM.

Q: What about the TGI (MOLT-4 leukemia) of the same molecule?
A: Its TGI is greater than 100 µM.

Q: And the TGI (786-0 renal)?
A: Its TGI is greater than 100 µM.

Q: And the TGI (HOP-62 NSCLC)?
A: Its TGI is greater than 100 µM.

Q: What about the TGI (HT29 colon) of the same molecule?
A: Its TGI is greater than 100 µM.

Q: What about the TGI (HCT-116 colon) of the same molecule?
A: Its TGI is greater than 100 µM.

Q: And the TGI (KM12 colon)?
A: The TGI was greater than 100 µM.

Q: And the TGI (NCI/ADR-RES ovarian)?
A: The TGI was greater than 100 µM.

Q: And the TGI (T-47D breast)?
A: The TGI was greater than 100 µM.

Q: What about the TGI (ACHN renal) of the same molecule?
A: Its TGI is greater than 100 µM.

Q: What about the TGI (HCT-15 colon) of the same molecule?
A: Its TGI is 39.6 µM.

Q: What about the TGI (K-562 leukemia) of the same molecule?
A: Its TGI is greater than 100 µM.

Q: And the TGI (HCC-2998 colon)?
A: The TGI was greater than 100 µM.

Q: What about the TGI (OVCAR-4 ovarian) of the same molecule?
A: The TGI was greater than 100 µM.

Q: What about the TGI (EKVX NSCLC) of the same molecule?
A: The TGI was greater than 100 µM.

Q: What about the TGI (HOP-92 NSCLC) of the same molecule?
A: Its TGI is 87.1 µM.

Q: And the TGI (NCI-H522 lung)?
A: The TGI was 66.6 µM.

Q: What about the TGI (UO-31 renal) of the same molecule?
A: Its TGI is greater than 100 µM.

Q: And the TGI (CAKI-1 renal)?
A: The TGI was greater than 100 µM.

Q: And the TGI (NCI-H460 lung)?
A: The TGI was greater than 100 µM.

Q: And the TGI (U251 CNS)?
A: The TGI was 90.7 µM.

Q: And the TGI (SK-MEL-5 melanoma)?
A: The TGI was greater than 100 µM.

Q: And the TGI (MALME-3M melanoma)?
A: Its TGI is greater than 100 µM.

Q: What about the TGI (SF-539 CNS) of the same molecule?
A: Its TGI is greater than 100 µM.

Q: And the TGI (MCF7 breast)?
A: The TGI was 54.9 µM.

Q: What about the TGI (MDA-MB-435) of the same molecule?
A: Its TGI is 62.4 µM.

Q: What about the TGI (SF-268 CNS) of the same molecule?
A: Its TGI is greater than 100 µM.

Q: And the TGI (RXF 393 renal)?
A: The TGI was greater than 100 µM.

Q: And the TGI (MDA-N)?
A: Its TGI is greater than 100 µM.

Q: What about the TGI (OVCAR-5 ovarian) of the same molecule?
A: Its TGI is greater than 100 µM.

From PubChem BioAssay (NCI)
